We go through 16 molecules from ChEMBL document CHEMBL6109109, “Fatty acid binding protein 5 inhibitors as novel anticancer agents against metastatic castration-resistant prostate cancer” (Bioorg Med Chem, 2025).

Broadly, the IC50 is the concentration that gives 50% inhibition. For orientation: Ki means the dissociation constant of the complex between target and ligand, obtained from inhibition or displacement. The low end stands for a stronger hold on the target, the high end for a looser hold on the target.

In series [1] the test system is PC-3. Kind of series: Cytotoxicity against human PC-3 cells assessed as reduction in cell viability measured after 72 hrs by MTT assay. It is filed as functional, cell-based. The settings on record: PC-3, 72 h. In general terms: Tetrazolium assays rely on reduction of a dye to a coloured formazan, in cell work by metabolically active cells.
The test system of series [2] is PC-3. Description: Induction of apoptosis in human PC-3 cells assessed as late apoptotic cells at 15 uM measured after 72 hrs by Annexin V-FITC/propidium iodide staining based FACS analysis (reference value: 1.73%). It is filed as functional. Background: In flow cytometry, cells or beads pass a laser one at a time.
The nature of series [3]: Cytotoxicity against mouse RCap cells assessed as reduction in cell viability measured after 72 hrs by MTT assay. In kind it is functional, cell-based.
Series [4] can be described thus: Cytotoxicity against human WI-38 cells assessed as reduction in cell viability measured after 72 hrs by MTT assay. It is filed as toxicity, cell-based.
For series [5], the system named is PC-3. Kind of series: Induction of apoptosis in human PC-3 cells assessed as early apoptotic cells at 15 uM measured after 72 hrs by Annexin V-FITC/propidium iodide staining based FACS analysis (reference value: 0.54%). It is filed as functional.
Series [6] relates to PC-3. Description: Induction of apoptosis in human PC-3 cells assessed as viable cells at 15 uM measured after 72 hrs by Annexin V-FITC/propidium iodide staining based FACS analysis (reference value: 97.62%). It is filed as functional. The settings on record: read-out: Activity.
For series [7], the system named is PC-3. Kind of series: Induction of apoptosis in human PC-3 cells assessed as necrotic cells at 15 uM measured after 72 hrs by Annexin V-FITC/propidium iodide staining based FACS analysis (reference value: 0.11%). It is filed as functional.
The nature of series [8]: Binding affinity to FABP5 (unknown origin). Details: species or system Homo sapiens.
Series [9] deals with PC-3. Description: Cytotoxicity against human PC-3 cells assessed as cell growth inhibition at 10 uM measured after 72 hrs by MTT assay relative to control. It is filed as functional. The following applies: read-out: GI.
Series [10] is described as follows: Cytotoxicity against mouse RCaP cells assessed as cell growth inhibition at 0.001 uM measured after 72 hrs by MTT assay relative to control. The settings on record: read-out: GI. It is filed as functional.
Series [11] is described as follows: Cytotoxicity against mouse RCaP cells assessed as cell growth inhibition at 0.00001 uM measured after 72 hrs by MTT assay relative to control. It is filed as functional. The settings on record: dose 1e-05 µM, read-out: GI.
In series [12] the test system is PC-3. Description: Cytotoxicity against human PC-3 cells assessed as cell growth inhibition at 0.1 uM measured after 72 hrs by MTT assay relative to control. It is filed as functional. The settings on record: read-out: GI.
For series [13], the system named is PC-3. Kind of series: Cytotoxicity against human PC-3 cells assessed as cell growth inhibition at 0.0001 uM measured after 72 hrs by MTT assay relative to control. The following applies: read-out: GI. In kind it is functional.
The nature of series [14]: Cytotoxicity against mouse RCaP cells assessed as cell growth inhibition at 0.0001 uM measured after 72 hrs by MTT assay relative to control. In kind it is functional. The settings on record: read-out: GI.
In series [15] the test system is PC-3. Kind of series: Cytotoxicity against human PC-3 cells assessed as cell growth inhibition at 0.01 uM measured after 72 hrs by MTT assay relative to control. It is filed as functional. The settings on record: read-out: GI.
Series [16] has as its system PC-3. Description: Cytotoxicity against human PC-3 cells assessed as cell growth inhibition at 0.001 uM measured after 72 hrs by MTT assay relative to control. In kind it is functional. The following applies: read-out: GI.
The subject of series [17] is PC-3. Description: Cytotoxicity against human PC-3 cells assessed as cell growth inhibition at 1 uM measured after 72 hrs by MTT assay relative to control. It is filed as functional. The settings on record: read-out: GI.
Series [18] in a line: Cytotoxicity against mouse RCaP cells assessed as cell growth inhibition at 0.1 uM measured after 72 hrs by MTT assay relative to control. It is filed as functional. The settings on record: read-out: GI.
The nature of series [19]: Cytotoxicity against mouse RCaP cells assessed as cell growth inhibition at 1 uM measured after 72 hrs by MTT assay relative to control. It is filed as functional. The settings on record: read-out: GI.
For series [20], the system named is PC-3. Kind of series: Cytotoxicity against human PC-3 cells assessed as cell growth inhibition at 0.00001 uM measured after 72 hrs by MTT assay relative to control. In kind it is functional. The settings on record: dose 1e-05 µM, read-out: GI.
A short description of series [21]: Cytotoxicity against mouse RCaP cells assessed as cell growth inhibition at 0.01 uM measured after 72 hrs by MTT assay relative to control. In kind it is functional. The settings on record: read-out: GI.
A short description of series [22]: Cytotoxicity against mouse RCaP cells assessed as cell growth inhibition at 10 uM measured after 72 hrs by MTT assay relative to control. It is filed as functional. The settings on record: read-out: GI.

With `O=C(O)[C@H]1[C@@H](c2ccccc2)[C@H](C(=O)Oc2cccc3ccccc23)[C@@H]1c1ccccc1`, the IC50 with PC-3 [1] is 15.9 µM; in series [3], 33.4 µM. Moreover, the Activity in the series on PC-3 [2] came out at 3.13%; with PC-3 [5], 1.22%; in the series with PC-3 [7], 0.21%. In addition, the IC50 at 72 h in [4] came out at 83.3 µM. For the same molecule, in the series on PC-3 [6], the viability at 15 µM turned out to be 95.4%.

As for `O=C1CCc2cc(-c3cccc(OC(=O)[C@H]4[C@@H](c5ccccc5)[C@H](C(=O)O)[C@@H]4c4ccccc4)c3)ccc2N1`, the 50% inhibitory concentration (IC50) in the series on PC-3 [1] was determined as 11.4 µM; in [3], 12.6 µM. The affinity in [8], expressed as Ki, was 0.74 µM. For the same molecule, the IC50 at 72 h in series [4] stood at 42.8 µM.

Take `COc1ccccc1[C@H]1[C@H](C(=O)O)[C@H](c2ccccc2OC)[C@H]1C(=O)OCC1(F)c2ccccc2-c2ccccc21`: the figures for the IC50 (in the series on PC-3 [1]; in series [3]) were 11.8 µM and 13 µM, respectively. In series [8], this molecule displayed a Ki of 1.83 µM. For the same molecule, the IC50 at 72 h in series [4] stood at 55.6 µM.

In the case of `COc1ccccc1[C@H]1[C@H](C(=O)O)[C@H](c2ccccc2OC)[C@H]1C(=O)OCCc1ccccc1-c1ccccc1`, the 50% inhibitory concentration (IC50) was 11.9 µM with PC-3 [1] and 14.2 µM in series [3]. The same molecule displayed a Ki in series [8] of 0.51 µM. Further, the IC50 at 72 h in series [4] amounted to 51 µM.

For the molecule `O=C(O)[C@H]1[C@H](c2ccccc2)[C@H](C(=O)Oc2cc(-c3ccc4c(c3)OCCO4)cc3c2OCCO3)[C@H]1c1ccccc1`, the IC50 was determined as 11.8 µM with PC-3 [1] and 13.5 µM in [3]. Also, the Ki in series [8] was determined as 1.15 µM. Moreover, the IC50 at 72 h in [4] is 68.5 µM.

`O=C(O)[C@@H]1[C@@H](c2ccccc2)[C@H](C(=O)OCc2cccc3ccccc23)[C@H]1c1ccccc1`: the IC50 with PC-3 [1] was 13.1 µM; in series [3] it was 23.9 µM. Also, in [8], the affinity, expressed as Ki, was 5.08 µM. Besides, in series [4], the IC50 at 72 h turned out to be 27.1 µM.

With `N#CCc1ccc(-c2ccccc2)cc1OC(=O)[C@H]1[C@@H](c2ccccc2)[C@@H](C(=O)O)[C@@H]1c1ccccc1`, the results for the IC50 (in the series on PC-3 [1]; in [3]) were 12.3 µM and 30.1 µM, respectively. The same molecule showed an inhibition constant (Ki) in [8] of 2.37 µM. For the same molecule, the IC50 at 72 h in [4] stood at 55.2 µM.

`O=C1CCc2cc(-c3cccc(OC(=O)[C@H]4[C@@H](c5ccccc5)[C@@H](C(=O)O)[C@@H]4c4ccccc4)c3)ccc2N1`: the IC50 in the series with PC-3 [1] was found to be 13.1 µM; in [3], 15.6 µM. Also, the Ki in series [8] turned out to be 7.59 µM. For the same molecule, the IC50 at 72 h in series [4] was determined as 77 µM.

Consider `C#Cc1ccc(-c2ccc3c(c2)OCO3)cc1OC(=O)[C@H]1[C@@H](c2ccccc2OC)[C@H](C(=O)O)[C@@H]1c1ccccc1OC`, for which the IC50 was determined as 11.4 µM with PC-3 [1] and 14.8 µM in series [3]. Also, the affinity in [8], expressed as Ki, was 1.21 µM. For the same molecule, in series [4], the IC50 at 72 h was 72.1 µM.

For the molecule `COc1ccccc1[C@H]1[C@H](C(=O)O)[C@H](c2ccccc2OC)[C@H]1C(=O)Oc1cccc(-c2cccc3c2OCO3)c1`, the IC50 came to 12.4 µM in the series with PC-3 [1] and 19.5 µM in series [3]. This molecule also registered a Ki in [8] of 0.41 µM. The IC50 at 72 h in [4] is 35.1 µM.

`O=C(O)[C@H]1[C@H](c2ccccc2)[C@H](C(=O)Oc2cccc(-c3ccc4c(c3)OCCO4)c2)[C@H]1c1ccccc1`: the IC50 in the series with PC-3 [1] amounted to 13.1 µM; in [3], 14.5 µM. The molecule further returned a Ki in [8] of 0.66 µM. Moreover, in series [4], the half-maximal inhibitory concentration (IC50) at 72 h stood at 66.5 µM.

Turning to `COc1ccccc1[C@H]1[C@H](C(=O)O)[C@H](c2ccccc2OC)[C@H]1C(=O)Oc1cc(-c2ccc3c(c2)OCO3)ccc1CC#N`, the IC50 was determined as 12.5 µM with PC-3 [1] and 20.7 µM in [3]. The molecule further showed a Ki in [8] of 0.58 µM. Further, the IC50 at 72 h in series [4] worked out at 29.8 µM.

Regarding `COc1ccccc1[C@H]1[C@H](C(=O)O)[C@H](c2ccccc2OC)[C@@H]1C(=O)Oc1cccc(-c2cccc3c2OCO3)c1`, the IC50 was 15.7 µM with PC-3 [1] and 29 µM in [3]. For the same molecule, in series [8], affinity was put at a Ki of 1.26 µM. In series [4], the IC50 at 72 h stood at 49 µM.

On to `COc1ccccc1[C@H]1[C@H](C(=O)O)[C@H](c2ccccc2OC)[C@@H]1C(=O)Oc1cccc(-c2ccc(F)cc2)c1`, for which the figures for the IC50 (in the series on PC-3 [1]; in series [3]) were 14.6 µM and 19 µM, respectively. The same molecule had a Ki in series [8] of 1.77 µM. In series [4], the IC50 at 72 h was 57.5 µM.

On to `COc1ccccc1[C@H]1[C@H](C(=O)O)[C@H](c2ccccc2OC)[C@H]1C(=O)Oc1cccc(-c2ccc3c(c2)OCCO3)c1`, for which the results for the IC50 (in the series with PC-3 [1]; in series [3]) were 13 µM and 12.5 µM, respectively. This molecule also showed a Ki in series [8] of 1.56 µM. Moreover, the IC50 at 72 h in series [4] came to 54.7 µM.

With `CC[C@@]1(O)C(=O)OCc2c1cc1n(c2=O)Cc2cc3c(CN(C)C)c(O)ccc3nc2-1` [TOPOTECAN], the inhibition of growth at 10 µM in the series on PC-3 [9] was 69.2%; in series [22], 89.6%. For the same molecule, the inhibition of growth at 0.001 µM in series [10] amounted to 0.1%; in the series with PC-3 [16] it was 1.13%. Moreover, the inhibition of growth at 10 pM is -1.57% in [11] and -4.4% in the series on PC-3 [20]. For the same molecule, the inhibition of growth at 0.1 µM with PC-3 [12] is 55.9%; in series [18] it was 66%. For the same molecule, the inhibition of growth at 0.0001 µM in the series with PC-3 [13] is -2.77%; in series [14], -3.2%. In addition, the inhibition of growth at 0.01 µM in the series on PC-3 [15] came out at 20.1%; in [21] it was 9.17%. For the same molecule, the inhibition of growth at 1 µM with PC-3 [17] is 67.1%; in series [19], 93.6%.
